Assay results as given in patent publication US20020048572A1, “Treatment of hypertriglyceridemia and other conditions using LXR modulators” (priority 2000, published 2002).
Entries after “also recorded” stand apart in the source; their conditions may differ.

Key:
[1] = tested on: HepG2 cells; assay: Northern blot analysis of HepG2 cells treated with LXRα ligand, with or without cyclohexamide; type: cell-based
Description: HepG2 cells were treated with 24,25-epoxycholesterol in the presence or absence of 50 μg/ml cyclohexamide in DMEM F12 media supplemented with 10% lipid-free serum for 18 hours.
Total RNA was then prepared using the TRIzol® method (Chomczynski and Saachi (1987) Anal. Biochem. 162:156). Electrophoresis and Northern blot analysis were performed using the NorthernMax™ system (Ambion). Ribonucleotide probes were used to identify the RNA transcripts.

[2] = tested on: HepG2, 293, and CaCO2 cells; assay: Northern blot analysis of three cell lines treated with oxysterols in presence of cyclohexamide; type: cell-based; details: 30 μM, 50 μg/ml cyclohexamide, 18 hours
Description: To ascertain whether or not the 24,25-epoxycholesterol-mediated activation of SREBP-1 expression is cell-specific, three cell lines were tested. HepG2, 293, and CaCO2 cells were treated with either DMSO, 30 μM of 24,25-epoxycholesterol, 30 μM of 22(R)-hydroxycholesterol, or 30 μM 22(S)-hydroxycholesterol in the presence of 50 μg/ml cyclohexamide in DMEM F12 media supplemented with 10% lipid-free serum for 18 hours.
Total RNA was then prepared using the Trizol method. Electrophoresis and Northern blot analysis were performed using the NorthernMax™ system (Ambion). Ribonucleotide probes were used to identify RNA transcripts.

[3] = target: T1, LXRα (Homo sapiens, UniProt Q13133); details: SPA
T1 sequence (Q13133 1-447): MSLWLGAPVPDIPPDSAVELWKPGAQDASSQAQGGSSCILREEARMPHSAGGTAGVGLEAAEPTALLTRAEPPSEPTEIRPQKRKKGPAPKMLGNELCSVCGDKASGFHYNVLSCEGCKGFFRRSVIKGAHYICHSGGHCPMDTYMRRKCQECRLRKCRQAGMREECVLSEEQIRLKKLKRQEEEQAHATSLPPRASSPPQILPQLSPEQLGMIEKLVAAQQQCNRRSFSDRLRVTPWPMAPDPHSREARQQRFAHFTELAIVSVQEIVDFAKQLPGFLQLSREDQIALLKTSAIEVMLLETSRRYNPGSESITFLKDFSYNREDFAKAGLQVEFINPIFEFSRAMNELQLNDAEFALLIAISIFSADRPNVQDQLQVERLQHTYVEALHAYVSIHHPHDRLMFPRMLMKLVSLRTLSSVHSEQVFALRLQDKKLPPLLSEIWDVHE

[4] = target: T2, LXRα ligand-binding domain (Homo sapiens, UniProt Q13133); assay: biochemical
T2 sequence (Q13133 209-447 limits assumed): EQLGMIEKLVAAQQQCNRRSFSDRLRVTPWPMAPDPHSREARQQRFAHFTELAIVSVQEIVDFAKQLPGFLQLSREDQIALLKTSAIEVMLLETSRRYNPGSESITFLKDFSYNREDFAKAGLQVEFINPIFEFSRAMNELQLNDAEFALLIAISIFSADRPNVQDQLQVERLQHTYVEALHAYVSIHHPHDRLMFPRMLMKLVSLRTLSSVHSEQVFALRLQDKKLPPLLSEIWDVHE

[5] = tested on: HepG2 cells; assay: Northern blot analysis of T0314407-dosed HepG2 cells with and without cycloheximide; type: cell-based; details: HepG2, with 50 μg/mL cycloheximide, 18 h
Description: FIG. 9. Northern blot analysis. Total RNA was isolated from the tissues indicated from mice (A,B,C) and hamsters (D). The numerical data shown with each figure represents the fold increase (+) or decrease (−) of expression relative to corresponding vehicle-treated controls. (E) HepG2 cells were incubated in culture media with or without cycloheximide (cyclohex). For the Northern blot analysis from cycloheximide-treated HepG2 cells, tissue cultures were incubated in cell culture media with 10% lipid-deficient serum with or without 50 μg/mL cycloheximide. T0314407 was added after 30 min of cycloheximide treatment, cells were harvested 18 h later, and total RNA was extracted as described.

[6] = HepG2, presence and absence of 50 μg/ml cyclohexamide, 18 hours

Row | Structure (SMILES) | expression of SREBP-2 ([1]; HepG2, 18 hours) | expression of negative control GAPDH ([1]; HepG2, 18 hours) | expression of SREBP-1 mRNA [1, 6] | expression of fatty acid synthase [1, 6] | expression of GAPDH [2] | expression of SREBP-2 [2] | SREBP-1 expression ([2]; all three cell lines) | competition with binding of radiolabeled T0314407 to LXRα [3] | EC50 [4] [nM] | agonist-mediated increase in levels of FAS mRNA [5] | induction of SREBP-1 gene expression [5]
1 | C[C@H](CC[C@@H]1OC1(C)C)[C@H]1CC[C@H]2[C@@H]3CC=C4C[C@@H](O)CC[C@]4(C)[C@H]3CC[C@]12C [24,25-epoxycholesterol, 24(S),25-epoxycholesterol] | not affected | not affected | stimulated; also recorded: activates | stimulated | not significantly enhanced | not significantly enhanced | activates | competed | 300 |  | 
2 | CN(c1ccc(C(O)(C(F)(F)F)C(F)(F)F)cc1)S(=O)(=O)c1ccccc1 [T0314407, N-methyl-N-[4-(2,2,2-trifluoro-1-hydroxy-1-trifluoromethyl-ethyl)-phenyl]-benzenesulfonamide] |  |  |  |  |  |  |  |  |  | arrested | persisted
